Patent publication US20250195468A1, “METHODS AND COMPOSITIONS FOR TREATING COLORECTAL CANCER WITH INDOXYL SULFATE” (National Institute of Immunology, priority 2023, published 2025)
Counter-ions that a name gives are not always drawn.

Key:
[1] = system: HT-29 cells; experiment: CellTiter-Glo luminescent cell viability assay (ATP content); type: cell-based; conditions: Homo sapiens; HT-29, 72 hours; concentration not stated in b112 (FIG. 2: most cytotoxic at 10 mM)
Method: Cell viability was also assessed using the CellTiter-Glo R: Assay kit, which measures the amount of ATP to indicate cellular metabolic activity. HT-29 and HCT-116 cells were cultured in a 96-well plate at a density of 2500 cells per well. After 24 hours of seeding, the cells were exposed to various concentrations of IS, including 0.018 mM, 0.037 mM, 0.075 mM. 0.15 mM, 0.31 mM, 0.62 mM, 1.25 mM, 2.5 mM, 5 mM, and 10 mM. Triplicate wells were treated with IS for two different incubation periods: 48 hours and 72 hours. After the respective incubation periods. the assay was performed following the manufacturer's protocol. The details of the protocol can be found in the kit provided by the manufacturer. In summary, luminescence was measured using a Sirius Luminometer V3.2 (Berthold DETECTIONN SYSTEMS) with a measurement delay time of 2 seconds and a measurement time of 5 seconds. Non-treated cells were used as controls, representing 100% metabolically active cells in terms of ATP content.

[2] = system: HCT-116 cells; experiment: Apoptosis assay, Annexin V-FITC/PI flow cytometry; type: cell-based, human; conditions: for apoptotic percentage: 48 hours, untreated 3%
Method: (§1) The apoptotic effect of IS was evaluated on HCT-116 and HT-29 cells using the propidium iodide (PI)/Annexin V-fluorescein isothiocyanate (FITC) dual staining kit (ab14085: Abcam, USA). Duplicate wells of cells were cultured at a density of 3×10^5 cells per well in 6-well plates. After 24 hours of seeding, the cells were treated with IS at concentrations of 1.25 mM, 5 mM, and 10 mM. Following a 48-hour treatment period, the cells were harvested using trypsin and washed twice with PBS. After the washing steps, the cells were resuspended in 1 ml of fresh media and counted at each concentration using a hematocytometer. From each concentration, 2×10^5 cells were taken and dissolved in 500 μl of binding buffer, 5 μl of PI, and 5 μl of Annexin V-FITC. The cells were then incubated in the dark at room temperature for 30 minutes. Subsequently, the cells were analyzed for apoptosis using flow cytometry (BD Biosciences, FACS Canto™ Flow Cytometer, Germany) at 488 nm. Untreated cells were used as controls for comparison.

[3] = system: HT-29 cells; experiment: Apoptosis assay, Annexin V-FITC/PI flow cytometry; type: cell-based, human; conditions: for apoptotic percentage: 48 hours, untreated 3%
Method: as §1

[4] = system: HCT-116 cells; experiment: Cell cycle assay, PI flow cytometry; type: cell-based, human; conditions: HCT-116, 48 hours, 5 mM and 10 mM (not resolved); increased from 18.1±1.99
Method: (§2) The evaluation of the effect of IS on the progression of HCT-116 and HT-29 cell cycle assay involved analysing the G0/G1 phase, Synthesis(S) phase, and G2/M phase. Cells were initially cultured in a 6-well plate with a seeding density of (2×10^5) cells/well in duplicate. After 24 hours of seeding, the cells were treated with varying concentrations of IS (1.25 mM, 5 mM, and 10 mM). Following a 48-hour processing period, the cells were detached using trypsin and washed twice with refrigerated PBS. The resulting cell pellet was then dissolved in 200 ul of chilled PBS and fixed by adding 800 ul of 70% ethanol dropwise. The samples were stored at −20° C. overnight for later use. After the overnight incubation, the cells were centrifuged at 2000 rpm for 5 minutes at 4° C. The pellet was dissolved in 300 ul of PBS, 50 ul of RNase A (100 ug/ml), and 35 ul of Triton X-100 (0.1%), and incubated at 37° C. for 30 minutes. Subsequently, 20 ul of PI was added from a stock solution of 500 μg/ml, and the samples were incubated in the dark for an additional 30 minutes. Flow cytometry (BD Biosciences, FACS Verse, Germany) was employed to measure PI staining in 1×10^3 cells. The Flow Jo software was utilized for the analysis of cell distribution across the different phases of the cell cycle.

[5] = system: HT-29 cells; experiment: Cell cycle assay, PI flow cytometry; type: cell-based, human; conditions: HT-29, 48 hours, 5 mM and 10 mM (not resolved); increased from 14.2±0.5
Method: as §2

[6] = system: HCT-116 cells; experiment: Cellular imaging (cell morphology); type: cell-based, human; conditions: HCT-116, 1.25-10 mM, 24, 48, 72 hours
Method: (§3) To assess the morphological changes of the cells following treatment, HT-29 and HCT-116 cells were cultured in 12-well plates at a concentration of […] cells per well. After 24 hours of seeding, the cells were treated with IS at concentrations of 1.25 mM, 5 mM, and 10 mM. The cells were exposed to IS in triplicate for three different incubation periods: 24 hours, 48 hours, and 72 hours. After the respective incubation periods, the cells were examined using a Nikon microscope equipped with a 20× objective. Images were captured using a digital camera and the NIS-Elements 3.0 software.

[7] = system: HT-29 cells; experiment: Cellular imaging (cell morphology); type: cell-based, human; conditions: HT-29, 1.25-10 mM, 24, 48, 72 hours
Method: as §3

[8] = system: human adenocarcinoma cells; experiment: Oxidative stress by DHE staining; type: cell-based; conditions: DHE staining after 48 hours of treatment
Method: In the in vitro study, cells were exposed to various doses of indoxyl sulfate ranging from 0.038 mM to 10 mM for three different incubation periods (24 hours, 48 hours, and 72 hours). A decrease in cell proliferation efficiency was observed after 48 hours of treatment, with the most significant effects observed at concentrations of 5 mM and 10 mM of indoxyl sulfate. […] Decrease in cellular ATP content indicates the diminished cellular metabolic activity and may be linked with cell death. Considering these findings. the apoptotic effect of indoxyl sulfate was examined. […] Another study on the osteoblast cell line MC3T3-E1 also confirmed that IS acts as a bone toxin by inducing cell apoptosis and inhibiting differentiation. […] To account for this study. cells were also assessed for oxidative stress in this invention by staining them with […] (DHE) after 48 hours of treatment. […] The potential for IS to cause DNA damage was also investigated.

[9] = 10 mM, 48-hour treatment, stated for cells in general

SMILES: O=S(=O)(O)Oc1c[nH]c2ccccc12 [IS, Indoxyl Sulfate]
- viability at 10000 µM [1]: 19%
- increase in cell apoptosis compared to the control [2, 9]: 10%
- apoptotic percentage ([2]; HCT-116, 5 mM): 9%
- apoptotic percentage ([2]; HCT-116, 10 mM): 13%
- increase in cell apoptosis compared to the control [3, 9]: 10%
- apoptotic percentage ([3]; HT-29, 5 mM): 8%
- apoptotic percentage ([3]; HT-29, 10 mM): 12%
- number of cells in the G2/M phase [4]: 22.7±3.2
- number of cells in the G2/M phase [5]: 17.3±0.7
- cell morphology [6]: rounded morphology, reduced cell numbers, and detachment from the culture substrate
- cell morphology [7]: rounded morphology, reduced cell numbers, and detachment from the culture substrate
- production of ROS [8]: did not cause any production of ROS
